The results in this text go back to PMC11542830, “3-nitropyridine analogues as novel microtubule-targeting agents” (PLOS ONE, 2024).

Holding throughout (format): cell-based
The test system of assay [1] is SNB-75. As to the kind of experiment: NCI60 5-dose screen, SNB-75. The conditions noted are these: Homo sapiens, CNS cancer, Fig 1D, read-out: Log10 GI50 (SNB-75) (converted). On the procedure:
(§1) The screening methodology used in the NCI60 Cell 5-Doses screen is described in detail at https://dtp.cancer.gov/discovery_development/nci-60/methodology.htm. Briefly, cells are seeded in 96 well plates at an appropriate density and incubated for 1 day. After 1 day, some of the plates are processed to determine a time zero density. To the remaining plates, compounds are added over a 5-log M concentration range (1 log dilutions from 10^-4M to 10^-8M). Plates are incubated for two additional days, then fixed and stained with sulforhodamine B. Growth inhibition is calculated relative to cells without drug treatment and the time zero control. The GI50 is the concentration of a compound that causes 50% growth inhibition, relative to the no drug control.

The subject of assay [2] is IGROV1. As to the kind of experiment: NCI60 5-dose screen, IGROV1. The conditions noted are these: Homo sapiens, IGROV-1; ovarian cancer; Fig 1D; read-out: Log10 GI50 (IGROV1) (converted). The protocol: as §1
Assay [3] relates to BC-1 cells. As to the kind of experiment: 3-day MTS cell viability assay, BC-1. The conditions noted are these: Homo sapiens, BC1, 72 hours, Fig 1C. The protocol: All cancer cell lines (HT-29: colorectal adenocarcinoma, HCT-116: colorectal carcinoma, A549: lung epithelial carcinoma, PC3: prostate adenocarcinoma, Jurkat: acute T-cell leukemia, BC-1: primary effusion lymphoma) and the normal human embryonal lung fibroblast cell line MRC-5 were acquired from the American Type Culture Collection (ATCC). All cell lines were cultured as recommended by the suppliers. Culture media were purchased from Gibco (Thermo Fisher Scientific) and supplemented with 10 to 20% fetal bovine serum (HyClone, GE Healthcare Life Sciences) and 20–25 μg/mL gentamicin (Gibco, Thermo Fisher Scientific). […]
Cell viability in cancer cell lines treated with compound was measured in a 3-day MTS cell proliferation assay using the CellTiter 96 AQueous Non-Radioactive Cell Proliferation Assay reagent (Promega) according to the manufacturer’s instructions. Absorbance was read at 490 nm on a SaFire II microplate reader (Tecan). CC50 values were calculated by fitting the obtained MTS cell viability data in GraphPad Prism using a 4-parameter log–based fit for inhibitors. Apoptosis induction and cell death upon compound treatment in PBMC was measured using the Alexa Fluor 488 Annexin V/Dead Cell Apoptosis Kit (Thermo Fisher Scientific), with readout on a FACSCanto II flow cytometer (BD Biosciences). […] The compounds were evaluated in duplo in two independent experiments.

In assay [4] the test system is OVCAR-8. As to the kind of experiment: NCI60 5-dose screen, OVCAR-8. The conditions noted are these: Homo sapiens, ovarian cancer, Fig 1D, read-out: Log10 GI50 (OVCAR-8) (converted). The protocol:
as §1

Assay [5] concerns HCT-116. As to the kind of experiment: NCI60 5-dose screen, HCT-116. The conditions noted are these: Homo sapiens, colon cancer, Fig 1D, read-out: Log10 GI50 (HCT-116) (converted). On the procedure: as §1
Assay [6] has as its system DU-145. As to the kind of experiment: NCI60 5-dose screen, DU-145. The conditions noted are these: Homo sapiens, prostate cancer, Fig 1D, read-out: Log10 GI50 (DU-145) (converted). On the procedure:
as §1

In assay [7] the test system is HS 578T. As to the kind of experiment: NCI60 5-dose screen, HS 578T. The conditions noted are these: Homo sapiens, breast cancer, Fig 1D, read-out: Log10 GI50 (HS 578T) (converted). On the procedure:
as §1

Assay [8] has as its system K-562. As to the kind of experiment: NCI60 5-dose screen, K-562. The conditions noted are these: Homo sapiens, K562; leukemia; Fig 1D; read-out: Log10 GI50 (K-562) (converted). On the procedure:
as §1

For assay [9], the system named is SK-OV-3. In words: NCI60 5-dose screen, SK-OV-3. The conditions noted are these: Homo sapiens, ovarian cancer, Fig 1D, read-out: Log10 GI50 (SK-OV-3) (converted). The protocol: as §1
Assay [10] relates to COLO 205. In words: NCI60 5-dose screen, COLO 205. The conditions noted are these: Homo sapiens, colon cancer, Fig 1D, read-out: Log10 GI50 (COLO 205) (converted). On the procedure:
as §1

For assay [11], the system named is UACC-62. In words: NCI60 5-dose screen, UACC-62. The conditions noted are these: Homo sapiens, melanoma, Fig 1D, read-out: Log10 GI50 (UACC-62) (converted). The protocol:
as §1

Assay [12] concerns 786-0. As to the kind of experiment: NCI60 5-dose screen, 786-0. The conditions noted are these: Homo sapiens, renal cancer, Fig 1D, read-out: Log10 GI50 (786-0) (converted). The protocol: as §1
For assay [13], the system named is PC-3. In words: NCI60 5-dose screen, PC-3. The conditions noted are these: Homo sapiens, prostate cancer, Fig 1D, read-out: Log10 GI50 (PC-3) (converted). On the procedure: as §1
The test system of assay [14] is SF-268. In words: NCI60 5-dose screen, SF-268. The conditions noted are these: Homo sapiens, CNS cancer, Fig 1D, read-out: Log10 GI50 (SF-268) (converted). The protocol: as §1
Assay [15] relates to HT29. In words: NCI60 5-dose screen, HT29. The conditions noted are these: Homo sapiens, HT-29; colon cancer; Fig 1D; read-out: Log10 GI50 (HT29) (converted). The protocol:
as §1

Assay [16] has as its system HCT-15. In words: NCI60 5-dose screen, HCT-15. The conditions noted are these: Homo sapiens, colon cancer, Fig 1D, read-out: Log10 GI50 (HCT-15) (converted). On the procedure:
as §1

In assay [17] the test system is NCI-60 Human Tumor Cell Lines. As to the kind of experiment: NCI-60 Human Tumor Cell Lines Screen (whole panel). The conditions noted are these: NCI-60 panel; for GI50: Homo sapiens, mean across all cell lines. The protocol: as §1
For assay [18], the system named is TK-10. In words: NCI60 5-dose screen, TK-10. The conditions noted are these: Homo sapiens, renal cancer, Fig 1D, read-out: Log10 GI50 (TK-10) (converted). The protocol:
as §1

Assay [19] has as its system NCI-H522. As to the kind of experiment: NCI60 5-dose screen, NCI-H522. The conditions noted are these: Homo sapiens, non-small cell lung cancer, Fig 1D, read-out: Log10 GI50 (NCI-H522) (converted). On the procedure: as §1
Assay [20] has as its system OVCAR-3. In words: NCI60 5-dose screen, OVCAR-3. The conditions noted are these: Homo sapiens, ovarian cancer, Fig 1D, read-out: Log10 GI50 (OVCAR-3) (converted). The protocol:
as §1

Where [21] appears, read: Fig 1D, read-out: mean GI50 (log10) (converted).
The mark [22] stands for this setting: read-out: mean GI50 across the panel.

Molecules are shown by their SMILES. Where two headings read alike, the source gives them in different places. Where only a bound is given, the exact number is not on record here.

Consider `Cc1ccnc(Nc2ccc([N+](=O)[O-])c(NCCN3CCOCC3)n2)c1` [Compound 4AZA2996, N^6-(4-methylpyridin-2-yl)-N^2-(2-morpholinoethyl)-3-nitropyridine-2,6-diamine], for which the GI50 was under 10 nM in assay [1]; 57.5 nM in assay [2]; 20 nM in assay [4]; under 10 nM in [5]; 25.7 nM in assay [6]; under 10 nM in [7]. The GI50 in [8] was under 10 nM; in assay [9], under 10 nM; in [10] it was under 10 nM; in assay [11], under 10 nM; in assay [12], 12.9 nM; in assay [13], under 10 nM. The 50% growth inhibitory concentration (GI50) in assay [14] is 58.9 nM; in [15], under 10 nM; in assay [16] it was under 10 nM; in assay [17] (setting [21]) it was 21.9 nM; in assay [17] (setting [22]), 21.9 nM; in [18], 18.6 µM. Further, the 50% growth inhibitory concentration (GI50) in [19] and in assay [20] was under 10 nM throughout. Further, in [3], the 50% inhibitory concentration (IC50) stood at 5.9 nM. In assay [17] (out of the cell lines tested), the “number of cell lines with GI50 lower than 10 nM” value was 31 of the 50.
As for `Cc1cc(C)cc(Nc2ccc([N+](=O)[O-])c(NCCN3CCOCC3)n2)c1` [Compound 4AZA2891, 6-(3,5-dimethylanilino)-2-(2-morpholinoethylamino)-3-nitropyridine], the GI50 in assay [1] was under 10 nM; in assay [2], 49 nM; in assay [4], 37.2 nM; in assay [5], 14.8 nM; in assay [6], 41.7 nM; in assay [7], 16.6 nM. Moreover, the concentration for 50% growth inhibition (GI50) was 11.5 nM in assay [8]; 58.9 nM in [9]; 21.4 nM in [10]; under 10 nM in assay [11]; 52.5 nM in [12]; 10.5 nM in [13]. The GI50 was 135 nM in [14]; 18.6 nM in [15]; under 10 nM in assay [16]; 35.5 nM in [17] (setting [21]); 35.5 nM in assay [17] (setting [22]); 12.9 µM in assay [18]. Moreover, the GI50 in assay [19] and in assay [20] was under 10 nM each time. In assay [3], the IC50 was 8.5 nM.
